Assay results taken from PMC6263338, “Synthesis of Some Phenylpropanoid Glycosides (PPGs) and Their Acetylcholinesterase/Xanthine Oxidase Inhibitory Activities” (Molecules, 2011).
“Also recorded” adds a separate entry of the source. Where two headings read alike, the source gives them in different places.

Assays:
[1] = target: T1, Xanthine Oxidase (from buttermilk) (Bos taurus, UniProt P80457); experiment: In vitro XOD inhibitory activity (Xanthine Oxidase Detection Kit); type: biochemical; conditions: for inhibition at 1500 µg/mL: read-out: XOD inhibitory activity % inhibition (1.5 mg/mL); for XOD inhibitory activity (in words): summary of Table 1; for XOD inhibitory activity % inhibition (1.5 mg/mL): compounds in 1% DMSO, mean ± SD, triplicate
T1 construct: Xanthine Oxidase (from buttermilk, Sigma Co., Ltd. X4875); purchased Sigma Co., Ltd. X4875; host or cells: buttermilk
Experimental: (§1) In vitro inhibitory activity test of these glycosides against AChE and XOD was studied by using Acetylcholinesterase Detection Kit and Xanthine Oxidase Detection Kit.
Assay of the in vitro AChE/XOD inhibitory activity: The tests of in vitro inhibitory activity of these PPGs against AChE (from drosophila, Jing Peng Bio-Pesticide Co., Ltd. Shandong, P. R. China) and Xanthine Oxidase (from buttermilk, Sigma Co., Ltd. X4875) were carried out by using AChE (or XOD) Detection Kits (Jian Cheng Bioengineering Institute, Nan Jin, Jiangsu, P. R. China), following the manufacturer’s protocol. All the compounds were dissolved in 1% DMSO. […] If an inhibition of more than 30% was observed, the compound was classified as active. The active compounds were consequently tested at seven concentrations. The results were read on a microplate reader at the wavelength of 450 nm/530 nm. All the assays were performed in triplicate with three independent experiments. The IC50 values were calculated using XLfit software.

AChE (from drosophila) = target: T2, AChE (from drosophila) (Drosophila melanogaster, UniProt P07140); experiment: In vitro AChE inhibitory activity (Acetylcholinesterase Detection Kit); type: biochemical; conditions: for inhibition at 1500 µg/mL: read-out: AChE inhibitory activitiy % inhibition (1.5 mg/mL); for inhibitory activities toward cholinesterase (in words): summary of Table 1
T2 construct: purchased Jing Peng Bio-Pesticide Co., Ltd. Shandong, P. R. China
Experimental: as §1
Assay of the in vitro AChE/XOD inhibitory activity: The tests of in vitro inhibitory activity of these PPGs against AChE (from drosophila, Jing Peng Bio-Pesticide Co., Ltd. Shandong, P. R. China) and Xanthine Oxidase (from buttermilk, Sigma Co., Ltd. X4875) were carried out by using AChE (or XOD) Detection Kits (Jian Cheng Bioengineering Institute, Nan Jin, Jiangsu, P. R. China), following the manufacturer’s protocol. All the compounds were dissolved in 1% DMSO. […] The results were read on a microplate reader at the wavelength of 450 nm/530 nm. All the assays were performed in triplicate with three independent experiments. The IC50 values were calculated using XLfit software.

[2] = seven concentrations, mean ± SD of triplicate independent experiments, – = not active
[3] = 1.5 mg/mL, compounds in 1% DMSO, mean ± SD, triplicate
[4] = seven concentrations, mean ± SD of triplicate independent experiments, – = not active, read-out: AChE inhibitory activitiy IC50
[5] = read-out: XOD inhibitory activity IC50, seven concentrations, mean ± SD of triplicate independent experiments, – = not active
[6] = read-out: AChE inhibitory activitiy IC50, seven concentrations, mean ± SD of triplicate independent experiments, – = not active

Row | Compound | inhibition at 1500 µg/mL [1] | XOD inhibitory activity IC50 (μM) [1, 2] | inhibition at 1500 µg/mL (AChE (from drosophila); [3]) | IC50 (AChE (from drosophila); [4]) | IC50 [1, 5] | AChE inhibitory activitiy IC50 (μM) (AChE (from drosophila); [2]) | IC50 (AChE (from drosophila); [6]) | other results
1 | COc1ccccc1C=CCO[C@@H]1O[C@H](CO)[C@@H](O)[C@H](O)[C@H]1O [Compound 10b, 2-Methoxycinnamyl β-D-glucopyranoside] | 12 ± 3.12% | – (not active (less than 30% inhibition at 1.5 mg/mL)) | 62 ± 4.53% | – | – | – | – | IC50 (AChE (from drosophila)): 15.5 ± 2.1 µM; inhibitory activities toward cholinesterase (in words) (AChE (from drosophila)): moderate inhibitory activities; also recorded: more potent than the corresponding unsubstituted compound 10m
2 | OC[C@H]1O[C@@H](OCC=Cc2ccc(O)cc2)[C@H](O)[C@@H](O)[C@@H]1O [Compound 16a, 4-Hydroxycinnamyl β-D-glucopyranoside] | 32 ± 1.63% | – | 34 ± 2.67% | 75.2 ± 1.2 µM | – | – | – | IC50 [1]: 79.3 ± 0.7 µM
3 | OC[C@H]1O[C@@H](OC/C=C/c2ccccc2)[C@H](O)[C@@H](O)[C@@H]1O [Compound 10m, Cinnamyl β-D-glucopyranoside] | 38 ± 2.83% | – | 16 ± 0.44% | – | 93.2 ± 1.4 µM | – (not active (less than 30% inhibition at 1.5 mg/mL)) | – | –
4 | COc1ccc(C=CCO[C@@H]2O[C@H](CO)[C@@H](O)[C@H](O)[C@H]2O)cc1O [Compound 16d, 3-Hydroxy-4-methoxycinnamyl β-D-glucopyranoside] | 56 ± 2.34% | – | 66 ± 3.45% | – | 16.5 ± 1.1 µM | – | 10.3 ± 2 µM | XOD inhibitory activity (in words) [1]: have XOD inhibitory activity
5 | 4-Trifluoromethycinnamyl β-D-glucopyranoside [Compound 10f] | – | – (not active (less than 30% inhibition at 1.5 mg/mL)) | – | – | – | – (not active (less than 30% inhibition at 1.5 mg/mL)) | – | XOD inhibitory activity % inhibition (1.5 mg/mL) [1]: 5 ± 0.22%; AChE inhibitory activitiy % inhibition (1.5 mg/mL) (AChE (from drosophila); [3]): 22 ± 2.44%
6 | COc1cc(C=CCO[C@@H]2O[C@H](CO)[C@@H](O)[C@H](O)[C@H]2O)ccc1O [Compound 16c, 4-Hydroxy-3-methoxycinnamyl β-D-glucopyranoside] | 23 ± 0.93% | – (not active (less than 30% inhibition at 1.5 mg/mL)) | – | – | – | – | 25.7 ± 0.7 µM | inhibition at 1500 µg/mL (AChE (from drosophila)): 54 ± 2.34%
7 | COc1cccc(C=CCO[C@@H]2O[C@H](CO)[C@@H](O)[C@H](O)[C@H]2O)c1OC [Compound 10e, 2,3-Dimethoxycinnamyl β-D-glucopyranoside] | 22 ± 0.85% | – (not active (less than 30% inhibition at 1.5 mg/mL)) | 34 ± 4.36% | – | – | – | 71.2 ± 2.8 µM | –
8 | 3-Bromo-4-ethoxy-5-methoxycinnamylcinnamyl β-D-glucopyranoside [Compound 10n] | – | – | – | 87.3 ± 2.1 µM | – | – | – | XOD inhibitory activity % inhibition (1.5 mg/mL) [1]: 28 ± 1.74%; IC50 ([1]; seven concentrations, mean ± SD of triplicate independent experiments, – = not active, read-out: XOD inhibitory activity IC50): 97.3 ± 0.8 µM; AChE inhibitory activitiy % inhibition (1.5 mg/mL) (AChE (from drosophila); [3]): 36 ± 3.55%
9 | O[C@@H]1[C@@H](O)[C@H](OC/C=C/c2ccccc2)O[C@H](CO[C@@H]2OC[C@H](O)[C@H](O)[C@H]2O)[C@H]1O [Compound 20, Rosavin] | 73 ± 0.02% | – | 85 ± 0.21% | 1.72 ± 0.1 µM | – | – | – | IC50 [1]: 5.55 µM
10 | COc1ccc(C=CCO[C@@H]2O[C@H](CO)[C@@H](O)[C@H](O)[C@H]2O)cc1OC [Compound 10d, 3,4-Dimethoxycinnamyl β-D-glucopyranoside] | 35 ± 3.22% | – | 43 ± 1.35% | 43.5 ± 0.6 µM | – | – | – | IC50 [1]: 73.5 ± 1.5 µM
11 | COc1ccc(C=CCO[C@@H]2O[C@H](CO[C@@H]3OC[C@H](O)[C@H](O)[C@H]3O)[C@@H](O)[C@H](O)[C@H]2O)cc1 [Compound 22, 4-Methoxycinnamyl 6-O-(α-L-arabinopyranosyl)-β-D-glucopyranoside] | 65 ± 0.1% | – | 72 ± 0.1% | 4.23 ± 0.1 µM | 5.71 ± 0.1 µM | – | – | –
12 | OC[C@H]1O[C@@H](OCC=Cc2ccc(F)c(F)c2)[C@H](O)[C@@H](O)[C@@H]1O [Compound 10k, 3,4-Difluorocinnamyl β-D-glucopyranoside] | 37 ± 2.78% | – | 43 ± 2.31% | 35.5 ± 1.1 µM | 55.4 ± 1.3 µM | – | – | –
13 | C[C@@H]1O[C@@H](OC[C@H]2O[C@@H](OCC=Cc3ccccc3)[C@H](O)[C@@H](O)[C@@H]2O)[C@H](O)[C@H](O)[C@H]1O [Compound 23, Cinnamyl 6-O-(α-L-rhamnopyranosyl)-β-D-glucopyranoside] | 60 ± 0.01% | – | 81 ± 0.05% | 2.05 µM | 8.21 µM | – | – | –
14 | COc1cc(C=CCO[C@@H]2O[C@H](CO)[C@@H](O)[C@H](O)[C@H]2O)cc(OC)c1OC [Compound 10h, 3,4,5-Trimethoxycinnamyl β-D-glucopyranoside] | 33 ± 2.16% | – | 17 ± 4.33% | – | – | – (not active (less than 30% inhibition at 1.5 mg/mL)) | – | IC50 [1]: 69.3 ± 1.3 µM
15 | COc1ccc(C=CCO[C@@H]2O[C@H](CO)[C@@H](O)[C@H](O)[C@H]2O)cc1 [Compound 10a, 4-Methoxycinnamyl β-D-glucopyranoside] | 10 ± 2.22% | – (not active (less than 30% inhibition at 1.5 mg/mL)) | 15 ± 3.27% | – | – | – (not active (less than 30% inhibition at 1.5 mg/mL)) | – | –
16 | OC[C@H]1O[C@@H](OCC=Cc2ccc3c(c2)OCO3)[C@H](O)[C@@H](O)[C@@H]1O [Compound 10g, 3,4-Methylenedioxycinnamyl β-D-glucopyranoside] | 13 ± 1.43% | – (not active (less than 30% inhibition at 1.5 mg/mL)) | 15 ± 3.55% | – | – | – (not active (less than 30% inhibition at 1.5 mg/mL)) | – | –
17 | OC[C@H]1O[C@@H](OCC=Cc2ccc(Cl)cc2)[C@H](O)[C@@H](O)[C@@H]1O [Compound 10j, 4-Chlorocinnamyl β-D-glucopyranoside] | 50 ± 2.35% | – | 42 ± 3.23% | – | 24.3 ± 1.4 µM | – | 38.3 ± 1.4 µM | XOD inhibitory activity (in words) [1]: have XOD inhibitory activity
18 | OC[C@H]1O[C@@H](OCC=Cc2cccc(O)c2)[C@H](O)[C@@H](O)[C@@H]1O [Compound 16b, 3-Hydroxycinnamyl β-D-glucopyranoside] | 41 ± 2.22% | – | 75 ± 2.12% | – | 29.6 ± 1.2 µM | – | 7.62 ± 1.1 µM | XOD inhibitory activity (in words) [1]: have XOD inhibitory activity
19 | COc1cc(C=CCO[C@@H]2O[C@H](CO)[C@@H](O)[C@H](O)[C@H]2O)cc(OC)c1 [Compound 10c, 3,5-Dimethoxycinnamyl β-D-glucopyranoside] | 21 ± 1.21% | – (not active (less than 30% inhibition at 1.5 mg/mL)) | 23 ± 0.85% | – | – | – (not active (less than 30% inhibition at 1.5 mg/mL)) | – | –
20 | O[C@@H]1[C@@H](O)[C@H](OCC=Cc2ccccc2)O[C@H](CO[C@@H]2OC[C@@H](O)[C@H](O)[C@H]2O)[C@H]1O [Compound 21, Cinnamyl 6-O-(β-D-xylopyranosyl)-β-D-glucopyranoside] | 74 ± 0.12% | – | 82 ± 0.11% | – | 4.56 ± 0.1 µM | – | 3.71 ± 0.1 µM | –
21 | OC[C@H]1O[C@@H](OCC=Cc2ccccc2F)[C@H](O)[C@@H](O)[C@@H]1O [Compound 10i, 2-Fluorocinnamyl β-D-glucopyranoside] | 24 ± 1.32% | – (not active (less than 30% inhibition at 1.5 mg/mL)) | 18 ± 2.11% | – | – | – (not active (less than 30% inhibition at 1.5 mg/mL)) | – | –
22 | OC[C@H]1O[C@@H](OCC=Cc2ccc(Br)cc2)[C@H](O)[C@@H](O)[C@@H]1O [Compound 10l, 4-Bromocinnamyl β-D-glucopyranoside] | 55 ± 3.67% | – | 57 ± 1.22% | – | 19.6 ± 1.5 µM | – | 22.4 ± 0.6 µM | XOD inhibitory activity (in words) [1]: have XOD inhibitory activity; inhibitory activities toward cholinesterase (in words) (AChE (from drosophila)): moderate inhibitory activities
